Measurements: ChEMBL document CHEMBL2413072, “Synthesis and in vitro anticancer studies of novel C-2 arylidene congeners of lantadenes” (2013)
The source made the active and inactive calls. The calls are words filed in the database; no cut-off is given here.

Tests used:
Assay type in all cases: functional
HL-60(TB) [1] = test: Growth inhibition of human HL-60(TB) cells assessed as cell growth at 10^-8 M by sulforhodamine B assay; settings: read-out: Activity
HT-29 [2] = test: Growth inhibition of human HT-29 cells assessed as cell growth at 10^-4 M by sulforhodamine B assay; settings: read-out: Activity
HT-29 [3] = test: Growth inhibition of human HT-29 cells assessed as cell growth at 10^-8 M by sulforhodamine B assay; settings: read-out: Activity
OVCAR-5 = test: Growth inhibition of human OVCAR5 cells assessed as cell growth at 10^-8 M by sulforhodamine B assay; settings: read-out: Activity
LOX IMVI = test: Growth inhibition of human LOXIMVI cells assessed as cell growth at 10^-4 M by sulforhodamine B assay; settings: read-out: Activity
KM12 [4] = test: Growth inhibition of human KM12 cells assessed as cell growth at 10^-6 M by sulforhodamine B assay; settings: read-out: Activity
NCI-H322M = test: Growth inhibition of human NCI-H322M cells assessed as cell growth at 10^-6 M by sulforhodamine B assay; settings: read-out: Activity
SK-MEL-28 = test: Growth inhibition of human SK-MEL-28 cells assessed as cell growth at 10^-6 M by sulforhodamine B assay; settings: read-out: Activity
RPMI-8226 = test: Growth inhibition of human RPMI8226 cells assessed as cell growth at 10^-8 M by sulforhodamine B assay; settings: read-out: Activity
OVCAR-3 = test: Growth inhibition of human OVCAR3 cells assessed as cell growth at 10^-7 M by sulforhodamine B assay; settings: read-out: Activity
T47D = test: Growth inhibition of human T47D cells assessed as cell growth at 10^-8 M by sulforhodamine B assay; settings: read-out: Activity
SN12C = test: Growth inhibition of human SN12C cells assessed as cell growth at 10^-7 M by sulforhodamine B assay; settings: read-out: Activity
MCF7 = test: Growth inhibition of human MCF7 cells by sulforhodamine B assay
MDA-MB-435 = test: Growth inhibition of human MDA-MB-435 cells assessed as cell growth at 10^-7 M by sulforhodamine B assay; settings: read-out: Activity
NCI-H460 [5] = test: Growth inhibition of human NCI-H460 cells assessed as cell growth at 10^-8 M by sulforhodamine B assay; settings: read-out: Activity
NCI-H460 [6] = test: Growth inhibition of human NCI-H460 cells assessed as cell growth at 10^-7 M by sulforhodamine B assay; settings: read-out: Activity
OVCAR-8 = test: Growth inhibition of human OVCAR8 cells assessed as cell growth at 10^-7 M by sulforhodamine B assay; settings: read-out: Activity
Hs-578T = test: Growth inhibition of human Hs 578T cells assessed as growth inhibition at 10 uM by sulforhodamine B assay
SNB-75 = test: Growth inhibition of human SNB75 cells assessed as cell growth at 10^-4 M by sulforhodamine B assay; settings: read-out: Activity
SK-MEL-5 = test: Growth inhibition of human SK-MEL-5 cells assessed as cell growth at 10^-7 M by sulforhodamine B assay; settings: read-out: Activity
[7] = Growth inhibition of human NCI-ADR-RES cells assessed as cell growth at 10^-8 M by sulforhodamine B assay; settings: read-out: Activity
PC-3 = test: Growth inhibition of human PC3 cells assessed as cell growth at 10^-8 M by sulforhodamine B assay; settings: read-out: Activity
SF-295 = test: Growth inhibition of human SF295 cells assessed as cell growth at 10^-7 M by sulforhodamine B assay; settings: read-out: Activity
DU-145 = test: Growth inhibition of human DU145 cells assessed as cell growth at 10^-4 M by sulforhodamine B assay; settings: read-out: Activity
SF-539 = test: Growth inhibition of human SF539 cells assessed as cell growth at 10^-8 M by sulforhodamine B assay; settings: read-out: Activity
SNB-19 = test: Growth inhibition of human SNB19 cells assessed as cell growth at 10^-4 M by sulforhodamine B assay; settings: read-out: Activity
COLO 205 = test: Growth inhibition of human COLO205 cells assessed as cell growth at 10^-4 M by sulforhodamine B assay; settings: read-out: Activity
MOLT-4 = test: Growth inhibition of human MOLT4 cells assessed as cell growth at 10^-4 M by sulforhodamine B assay; settings: read-out: Activity
ACHN = test: Growth inhibition of human ACHN cells assessed as cell growth at 10^-7 M by sulforhodamine B assay; settings: read-out: Activity
Malme-3M = test: Growth inhibition of human MALME-3M cells assessed as cell growth at 10^-7 M by sulforhodamine B assay; settings: read-out: Activity
HL-60(TB) [8] = test: Growth inhibition of human HL-60(TB) cells by sulforhodamine B assay
IGROV-1 = test: Growth inhibition of human IGROV1 cells assessed as cell growth at 10^-4 M by sulforhodamine B assay; settings: read-out: Activity
SK-MEL-2 = test: Growth inhibition of human SK-MEL-2 cells assessed as cell growth at 10^-8 M by sulforhodamine B assay; settings: read-out: Activity
[9] = Growth inhibition of human NCI-ADR-RES cells by sulforhodamine B assay
KM12 [10] = test: Growth inhibition of human KM12 cells assessed as cell growth at 10^-7 M by sulforhodamine B assay; settings: read-out: Activity
A549 = test: Growth inhibition of human A549/ATCC cells assessed as cell growth at 10^-4 M by sulforhodamine B assay; settings: read-out: Activity
[11] = read-out: LC50 (the source's name)
[12] = read-out: pLC50 (the source's name) (converted)

Work on `C/C=C(/C)C(=O)O[C@@H]1CC(C)(C)C[C@H]2C3=CC[C@@H]4[C@@]5(C)CC[C@H](O)C(C)(C)[C@@H]5CC[C@@]4(C)[C@]3(C)CC[C@@]12C(=O)O` [Reduced Lantadene A] yielded a growth at 0.01 µM (HL-60(TB) [1]) of 106%, a growth at 100 µM (HT-29 [2]) of -64% and a growth at 0.01 µM (HT-29 [3]) of 104%. For the same compound, the growth at 0.01 µM (OVCAR-5) was 100%, the growth at 100 µM (LOX IMVI) was -62% and the growth at 1 µM (KM12 [4]) was 69%. For the same compound, the growth at 1 µM (NCI-H322M) was 93%, the growth at 1 µM (SK-MEL-28) was 90% and the growth at 0.01 µM (RPMI-8226) was 96%. The growth at 0.1 µM (OVCAR-3) was 112%, the growth at 0.01 µM (T47D) was 101% and the growth at 0.1 µM (SN12C) was 92%. The GI50 (MCF7; read-out: GI50) was 3.09 µM, the CC50 (MCF7; [11]) was over 100 µM and the TGI (MCF7; read-out: TGI) was 16.5 µM. It also gave a GI50 (MCF7; read-out: pGI50 (converted)) of 3.09 µM, a CC50 (MCF7; [12]) of over 100 µM and a TGI (MCF7; read-out: pTGI (converted)) of 16.6 µM. For the same compound, the growth at 0.1 µM (MDA-MB-435) was 94%, the growth at 0.01 µM (NCI-H460 [5]) was 101% and the growth at 0.1 µM (NCI-H460 [6]) was 99%. The growth at 0.1 µM (OVCAR-8) was 99%, the “growth inhibition (GI)” value (Hs-578T) was “Active” and the growth at 100 µM (SNB-75) was -47%. For the same compound, the growth at 0.1 µM (SK-MEL-5) was 92%, the growth at 0.01 µM [7] was 102% and the growth at 0.01 µM (PC-3) was 92%. For the same compound, the growth at 0.1 µM (SF-295) was 90%, the growth at 100 µM (DU-145) was -46% and the growth at 0.01 µM (SF-539) was 100%. The growth at 100 µM (SNB-19) was -40%, the growth at 100 µM (COLO 205) was 3% and the growth at 100 µM (MOLT-4) was -36%. It also gave a growth at 0.1 µM (ACHN) of 101%, a growth at 0.1 µM (Malme-3M) of 94% and a GI50 (HL-60(TB) [8]; read-out: GI50) of 2.19 µM. For the same compound, the CC50 (HL-60(TB) [8]; [11]) was over 100 µM, the TGI (HL-60(TB) [8]; read-out: TGI) was 4.9 µM and the GI50 (HL-60(TB) [8]; read-out: pGI50 (converted)) was 2.19 µM. For the same compound, the CC50 (HL-60(TB) [8]; [12]) was over 100 µM, the TGI (HL-60(TB) [8]; read-out: pTGI (converted)) was 4.9 µM and the growth at 100 µM (IGROV-1) was -58%. The growth at 0.01 µM (SK-MEL-2) was 107%, the GI50 ([9]; read-out: GI50) was 2.17 µM and the CC50 [9, 11] was over 100 µM. The TGI ([9]; read-out: TGI) was 5 µM, the GI50 ([9]; read-out: pGI50 (converted)) was 2.19 µM and the CC50 [9, 12] was over 100 µM. The TGI ([9]; read-out: pTGI (converted)) was 5.01 µM, the growth at 0.1 µM (KM12 [10]) was 103% and the growth at 100 µM (A549) was -59%.
